From patent US8030047B2, “Active truncated form of the RNA polymerase of flavivirus” (priority 2003, dated 2011)

Tests used:
[1] = target: T1, NS5PolDV (Dengue virus type 2, UniProt P14340); assay: RNA polymerase activity of NS5PolDV on homopolymeric template poly(rC), [3H]-GTP incorporation; format: biochemical, Dengue virus (subtype 2, Strain New Guinea C); details: for IC50: poly(rC) without primer, GTP 10 mM (so in the source), NS5PolDV 60 nM, [3H]-GTP incorporation after 15 min
T1 construct: The junction (or where the Pol domain starts) is located at amino acid 272; His-tag; made in house; host or cells: E. coli BL21[pDNAy], plasmid pQE30
Experimental: (§1) Activity was tested on three homopolymeric templates: poly(rC), poly(rU) and poly(rA). Only poly(rC) resulted to be a productive template for NS5PolDV. This was illustrated in FIG. 4 based on the following protocol: RNA polymerase activity was tested on a homopolymeric RNA template (polycytidylic acid, Amersham Biosciences) of an average length of 360 nt. A standard assay was carried out in 50 mM HEPES buffer, pH 8.0, 10 mM KCl, 5 mM MgCl2, 5 mM MnCl2, 10 mM DTT containing 1 μM template, […] primer GG, 10 μM GTP, 0.01 mCi [3H]-GTP per μl reaction mixture and the concentration of enzyme given below. Reactions were carried out at 30° C. for given time periods and stopped by spotting a sample on DEAE filter discs (Whatman) presoaked with 50 mM EDTA. Filters were washed 3×10 min with 300 mM (NH4)2SO4 buffer, pH 8.0 and 2×5 min with EtOH and air-dried. Liquid scintillation fluid was added and incorporation in counts per minute (cpm) determined by using a Wallac MicroBeta TriLux Liquid Scintillation Counter.
A: Influence of specific E. coli RNA polymerase inhibitor rifampicin on NS5PolDV and E. coli polymerase (control). NS5PolDV was tested using the conditions given above at 64-nM enzyme concentration. E. coli RNA polymerase was obtained from USBiochemicals and used in NS5PolDV standard reaction buffer at 37 nM.
In FIG. 5, the steady-state Km determination of GTP with various ligands was performed as follows: RNA polymerase activity was tested under conditions given in the description set forth above in the experiments related to FIG. 4 without the use of a primer. Initial velocities were determined over a time period of 5 min. GTP concentrations in the range of 2 to 500 μM were tested using poly(rC) at 1 μM. Template poly(rC) was tested in the range of 2 to 1000 nM with GTP fixed at 200 μM.
Initial velocities were determined on poly(rC) at 10 mM GTP and compared to corresponding values without inhibitor. […] Since these inhibition results are not identical, questions related to the putative interference of the capping domain remain when using the full-length polymerase.

[2] = target: T2, full-length NS5DV (Dengue virus type 2, UniProt P14340); assay: RNA polymerase activity of full-length NS5DV on poly(rC); format: biochemical, Dengue virus (subtype 2, Strain New Guinea C); details: inhibitor 10 mM, 10 mM GTP, read-out: Initial velocity compared to the protein without inhibitor
T2 construct: His-tag; made in house; host or cells: E. coli BL21[pDNAy], plasmid pQE30
Experimental: as §1, with “Filters were washed 3×10 min with 300 mM (NH4)2SO4 buffer, pH 8.0 and 2×5 min with EtOH and air-dried.” left out
In FIG. 5, the steady-state Km determination of GTP with various ligands was performed as follows: RNA polymerase activity was tested under conditions given in the description set forth above in the experiments related to FIG. 4 without the use of a primer. Initial velocities were determined over a time period of 5 min. […]
Initial velocities were determined on poly(rC) at 10 mM GTP and compared to corresponding values without inhibitor. […]

[3] = target: T3, NS5PolWNV (West Nile virus, UniProt Q9Q6P4, K2808N/V2900A); assay: RNA polymerase activity of NS5PolWNV on homopolymeric template poly(rC), [3H]-GTP incorporation; format: biochemical, West Nile virus (strain New York 99); details: poly(rC) without primer; GTP 100 mM (so in the source); [3H]-GTP incorporation after 15 min
T3 construct: His-tag; made in house
T3 sequence (Q9Q6P4 2802-3433 K2808N/V2900A): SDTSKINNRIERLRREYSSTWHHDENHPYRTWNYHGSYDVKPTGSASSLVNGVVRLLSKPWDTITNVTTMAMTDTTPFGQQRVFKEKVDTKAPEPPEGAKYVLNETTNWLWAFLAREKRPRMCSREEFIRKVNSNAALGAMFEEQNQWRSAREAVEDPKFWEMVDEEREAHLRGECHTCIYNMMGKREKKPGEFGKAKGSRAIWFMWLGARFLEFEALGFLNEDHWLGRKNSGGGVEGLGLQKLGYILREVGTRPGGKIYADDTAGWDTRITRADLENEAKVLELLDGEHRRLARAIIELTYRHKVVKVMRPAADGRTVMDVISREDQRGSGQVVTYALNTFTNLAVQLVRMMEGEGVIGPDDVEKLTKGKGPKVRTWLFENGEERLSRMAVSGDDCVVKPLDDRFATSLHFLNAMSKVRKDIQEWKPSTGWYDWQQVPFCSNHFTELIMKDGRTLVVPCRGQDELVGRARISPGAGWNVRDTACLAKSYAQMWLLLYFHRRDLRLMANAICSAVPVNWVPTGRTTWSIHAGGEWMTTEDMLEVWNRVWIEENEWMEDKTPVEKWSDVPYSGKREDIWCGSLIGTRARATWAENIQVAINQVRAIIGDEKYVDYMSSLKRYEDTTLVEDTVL

Compound	IC50 [1] [nM]	activity at 10000 µM ([1]; read-out: Initial velocity compared to the protein without inhibitor) [%]	activity at 10000 µM [2] [%]	IC50 [3] [nM]
Nc1nc2c(ncn2[C@@H]2O[C@H](COP(=O)(O)OP(=O)(O)OP(=O)(O)O)C[C@H]2O)c(=O)[nH]1 [3′-deoxy GTP]	20	–	–	–
CO[C@@H]1[C@H](O)[C@@H](COP(=O)(O)OP(=O)(O)OP(=O)(O)O)O[C@H]1n1cnc2c(=O)[nH]c(N)nc21 [2′-O-methyl-GTP]	5600	29.3	19.3	–
3′-dioxolane 3′-deoxy GTP	1200	–	–	58000
Nc1nc2c(ncn2[C@H]2CC[C@@H](COP(=O)(O)OP(=O)(O)OP(=O)(O)O)O2)c(=O)[nH]1 [2′,3′-dideoxy GTP]	800	–	–	–
